Test results as given in ChEMBL document CHEMBL5226325, “Optimization of a Screening Hit toward M2912, an Oral Tankyrase Inhibitor with Antitumor Activity in Colorectal Cancer Models” (J Med Chem, 2021).

Target: T1, Poly [ADP-ribose] polymerase tankyrase-1 (Homo sapiens, UniProt O95271)
T1 sequence (O95271 whole entry): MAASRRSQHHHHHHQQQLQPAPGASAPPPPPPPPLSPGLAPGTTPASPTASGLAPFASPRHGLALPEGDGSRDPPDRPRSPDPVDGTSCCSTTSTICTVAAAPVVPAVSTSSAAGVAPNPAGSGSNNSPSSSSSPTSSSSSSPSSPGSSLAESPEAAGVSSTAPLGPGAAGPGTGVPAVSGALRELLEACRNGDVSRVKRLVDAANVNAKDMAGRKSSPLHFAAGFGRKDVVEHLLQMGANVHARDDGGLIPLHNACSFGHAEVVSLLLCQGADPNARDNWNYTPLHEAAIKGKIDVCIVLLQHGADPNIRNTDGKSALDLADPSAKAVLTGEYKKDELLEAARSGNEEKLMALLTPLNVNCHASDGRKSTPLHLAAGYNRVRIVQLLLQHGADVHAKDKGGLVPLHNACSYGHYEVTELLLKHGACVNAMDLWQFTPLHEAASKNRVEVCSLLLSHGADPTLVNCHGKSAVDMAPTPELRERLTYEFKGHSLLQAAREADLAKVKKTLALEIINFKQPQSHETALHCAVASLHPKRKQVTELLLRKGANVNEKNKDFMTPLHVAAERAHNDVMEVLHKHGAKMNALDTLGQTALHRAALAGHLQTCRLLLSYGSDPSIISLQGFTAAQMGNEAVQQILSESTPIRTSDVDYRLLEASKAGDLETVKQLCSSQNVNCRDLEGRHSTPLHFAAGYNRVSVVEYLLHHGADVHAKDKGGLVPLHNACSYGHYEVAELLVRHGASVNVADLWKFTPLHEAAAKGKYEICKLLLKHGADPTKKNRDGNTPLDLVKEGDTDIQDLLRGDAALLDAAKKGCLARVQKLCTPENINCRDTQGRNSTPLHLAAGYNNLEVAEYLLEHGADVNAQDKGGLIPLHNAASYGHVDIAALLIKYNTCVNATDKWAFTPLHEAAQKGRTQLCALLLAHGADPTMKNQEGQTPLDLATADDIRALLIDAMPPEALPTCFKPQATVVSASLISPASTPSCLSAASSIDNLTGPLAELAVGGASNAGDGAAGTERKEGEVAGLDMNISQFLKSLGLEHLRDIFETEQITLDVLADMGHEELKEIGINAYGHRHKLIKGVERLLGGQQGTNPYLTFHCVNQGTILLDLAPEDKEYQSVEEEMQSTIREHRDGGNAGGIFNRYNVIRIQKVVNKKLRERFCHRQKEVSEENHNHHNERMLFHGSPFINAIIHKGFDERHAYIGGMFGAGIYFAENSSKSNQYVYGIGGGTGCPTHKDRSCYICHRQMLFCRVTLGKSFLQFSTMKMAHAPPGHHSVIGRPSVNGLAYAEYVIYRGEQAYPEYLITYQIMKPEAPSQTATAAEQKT
Test: Inhibition of TNKS1 (unknown origin) using biotinylated NAD as substrate assessed as inhibition of autoPARsylation activity incubated for 90 mins by TR-FRET analysis
Conditions: not given

SMILES	IC50
Cc1ccc(-c2cn3ccnc3c(=O)[nH]2)cc1	1500 nM

Target: T1, Poly [ADP-ribose] polymerase tankyrase-1
Test: Inhibition of TNKS1 (unknown origin) using biotinylated NAD as substrate assessed as inhibition of autoPARsylation activity incubated for 1 hr by ELISA
Conditions: not given

SMILES	IC50
Cc1ncc2c(=O)[nH]c(-c3ccc(C(C)(C)C)cc3)cn12	2.9 nM
Cc1ncc2c(=O)[nH]c(-c3ccc(C(C)(C)O)cc3)cn12	12 nM
CC(C)(O)c1ccc(-c2cn3cccc3c(=O)[nH]2)cc1	2.7 nM
Cc1cc2c(=O)[nH]c(-c3ccc(C(C)(C)O)cc3)cn2c1	2.3 nM
Cc1ccc2c(=O)[nH]c(-c3ccc([C@@](C)(O)CCO)cc3)cn12	2.1 nM
Cc1cc2c(=O)[nH]c(-c3ccc(C(C)(C)O)cc3)nn2n1	570 nM
Cc1csc2c(=O)[nH]c(-c3ccc(C(C)(C)O)cc3)nc12	2 nM
CC(C)(C)c1ccc(-c2cn3cncc3c(=O)[nH]2)cc1	27 nM
Cc1cc2c(=O)[nH]c(-c3ccc(C(C)(C)O)cc3)cn2n1	13 nM
Cc1ccc2c(=O)[nH]c(-c3ccc(C(C)(C)OCCO)cc3)cn12	2.3 nM
Cc1ccc2c(=O)[nH]c(-c3ccc([C@](C)(O)CCO)cc3)cn12	0.8 nM
Cc1ccc2c(=O)[nH]c(-c3ccc(C4(O)CC4)cc3)cn12	1 nM
Cc1ccc2c(=O)[nH]c(-c3ccc([C@](C)(O)CO)cc3)cn12	2.6 nM
CC(C)(O)c1ccc(-c2cn3cc(Cl)cc3c(=O)[nH]2)cc1	2.5 nM
CC(C)(O)c1ccc(-c2cn3c(F)ccc3c(=O)[nH]2)cc1	3.4 nM
Cc1ccc2c(=O)[nH]c(-c3ccc(C(C)(C)O)cc3)nn12	0.8 nM
CC(C)(O)c1ccc(-c2cn3c(F)c(F)cc3c(=O)[nH]2)cc1	1.2 nM
Cc1ccc2c(=O)[nH]c(-c3ccc(C4(O)COC4)cc3)cn12	2.5 nM
CC(C)(O)c1ccc(-c2cn3c(CO)ccc3c(=O)[nH]2)cc1	9.8 nM
CC(C)(O)c1ccc(-c2cn3cc(F)cc3c(=O)[nH]2)cc1	1.9 nM
CC(C)(C)c1ccc(-c2cn3ccnc3c(=O)[nH]2)cc1	21 nM
Cc1ccc2c(=O)[nH]c(-c3ccc([C@@](C)(O)CO)cc3)cn12	1.9 nM

Tested on: not listed separately
Test: Modulation of Wnt/beta-catenin signaling pathway in human DLD-1 cells assessed as induction of AXIN2 accumulation incubated for 24 hrs by ELISA
Type: cell-based
Conditions: DLD-1, 24 h

SMILES	EC50
Cc1ncc2c(=O)[nH]c(-c3ccc(C(C)(C)C)cc3)cn12	210 nM
Cc1ncc2c(=O)[nH]c(-c3ccc(C(C)(C)O)cc3)cn12	749 nM
CC(C)(O)c1ccc(-c2cn3cccc3c(=O)[nH]2)cc1	120 nM
Cc1cc2c(=O)[nH]c(-c3ccc(C(C)(C)O)cc3)cn2c1	230 nM
Cc1ccc2c(=O)[nH]c(-c3ccc([C@@](C)(O)CCO)cc3)cn12	16 nM
Cc1cc2c(=O)[nH]c(-c3ccc(C(C)(C)O)cc3)nn2n1	12000 nM
Cc1csc2c(=O)[nH]c(-c3ccc(C(C)(C)O)cc3)nc12	96 nM
CC(C)(C)c1ccc(-c2cn3cncc3c(=O)[nH]2)cc1	635 nM
Cc1cc2c(=O)[nH]c(-c3ccc(C(C)(C)O)cc3)cn2n1	510 nM
Cc1ccc2c(=O)[nH]c(-c3ccc(C(C)(C)OCCO)cc3)cn12	20 nM
Cc1ccc2c(=O)[nH]c(-c3ccc([C@](C)(O)CCO)cc3)cn12	18 nM
Cc1ccc2c(=O)[nH]c(-c3ccc(C4(O)CC4)cc3)cn12	49 nM
Cc1ccc2c(=O)[nH]c(-c3ccc([C@](C)(O)CO)cc3)cn12	82 nM
CC(C)(O)c1ccc(-c2cn3cc(Cl)cc3c(=O)[nH]2)cc1	118 nM
CC(C)(O)c1ccc(-c2cn3c(F)ccc3c(=O)[nH]2)cc1	113 nM
Cc1ccc2c(=O)[nH]c(-c3ccc(C(C)(C)O)cc3)nn12	28 nM
CC(C)(O)c1ccc(-c2cn3c(F)c(F)cc3c(=O)[nH]2)cc1	159 nM
Cc1ccc2c(=O)[nH]c(-c3ccc(C4(O)COC4)cc3)cn12	28 nM
CC(C)(O)c1ccc(-c2cn3c(CO)ccc3c(=O)[nH]2)cc1	580 nM
CC(C)(O)c1ccc(-c2cn3cc(F)cc3c(=O)[nH]2)cc1	147 nM
CC(C)(C)c1ccc(-c2cn3ccnc3c(=O)[nH]2)cc1	1430 nM
Cc1ccc2c(=O)[nH]c(-c3ccc([C@@](C)(O)CO)cc3)cn12	93 nM

Target: T2, Poly [ADP-ribose] polymerase tankyrase-2 (Homo sapiens, UniProt Q9H2K2)
T2 sequence (Q9H2K2 whole entry): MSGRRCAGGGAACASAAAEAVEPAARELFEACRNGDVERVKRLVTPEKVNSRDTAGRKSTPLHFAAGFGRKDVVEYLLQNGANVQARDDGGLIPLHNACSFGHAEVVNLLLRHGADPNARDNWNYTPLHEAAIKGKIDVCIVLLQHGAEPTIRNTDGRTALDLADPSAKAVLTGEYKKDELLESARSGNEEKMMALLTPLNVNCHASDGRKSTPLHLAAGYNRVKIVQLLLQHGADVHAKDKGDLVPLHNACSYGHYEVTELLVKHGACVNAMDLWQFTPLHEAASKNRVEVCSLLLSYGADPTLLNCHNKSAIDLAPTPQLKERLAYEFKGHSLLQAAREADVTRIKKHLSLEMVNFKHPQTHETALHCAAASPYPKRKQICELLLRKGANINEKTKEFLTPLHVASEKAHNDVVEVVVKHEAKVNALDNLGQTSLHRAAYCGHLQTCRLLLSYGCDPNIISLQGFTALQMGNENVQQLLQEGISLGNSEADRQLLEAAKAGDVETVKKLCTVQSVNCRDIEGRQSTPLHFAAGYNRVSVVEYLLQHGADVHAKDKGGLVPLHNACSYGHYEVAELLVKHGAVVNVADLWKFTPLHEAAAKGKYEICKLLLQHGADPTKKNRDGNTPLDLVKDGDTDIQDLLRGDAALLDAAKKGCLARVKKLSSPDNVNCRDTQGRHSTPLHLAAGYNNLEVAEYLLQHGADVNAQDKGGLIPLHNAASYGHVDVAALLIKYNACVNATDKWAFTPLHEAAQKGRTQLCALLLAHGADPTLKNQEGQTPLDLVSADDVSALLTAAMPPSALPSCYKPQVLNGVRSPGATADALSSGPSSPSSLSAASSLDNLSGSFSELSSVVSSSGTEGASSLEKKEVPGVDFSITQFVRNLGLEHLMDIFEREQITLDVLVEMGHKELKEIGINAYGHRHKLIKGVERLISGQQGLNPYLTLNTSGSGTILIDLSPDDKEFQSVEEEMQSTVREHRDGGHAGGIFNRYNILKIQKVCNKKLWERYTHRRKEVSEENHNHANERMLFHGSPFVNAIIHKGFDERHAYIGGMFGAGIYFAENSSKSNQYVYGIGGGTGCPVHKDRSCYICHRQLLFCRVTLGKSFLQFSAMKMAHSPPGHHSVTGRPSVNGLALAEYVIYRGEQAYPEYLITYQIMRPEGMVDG
Test: Inhibition of TNKS2 (unknown origin) using biotinylated NAD as substrate assessed as inhibition of autoPARsylation activity incubated for 1 hr by ELISA
Conditions: not given

SMILES	IC50
Cc1ncc2c(=O)[nH]c(-c3ccc(C(C)(C)C)cc3)cn12	3.8 nM
Cc1ncc2c(=O)[nH]c(-c3ccc(C(C)(C)O)cc3)cn12	14 nM
CC(C)(O)c1ccc(-c2cn3cccc3c(=O)[nH]2)cc1	5.5 nM
Cc1cc2c(=O)[nH]c(-c3ccc(C(C)(C)O)cc3)cn2c1	7.9 nM
Cc1ccc2c(=O)[nH]c(-c3ccc([C@@](C)(O)CCO)cc3)cn12	1.6 nM
Cc1cc2c(=O)[nH]c(-c3ccc(C(C)(C)O)cc3)nn2n1	2600 nM
Cc1csc2c(=O)[nH]c(-c3ccc(C(C)(C)O)cc3)nc12	1.5 nM
CC(C)(C)c1ccc(-c2cn3cncc3c(=O)[nH]2)cc1	35 nM
Cc1cc2c(=O)[nH]c(-c3ccc(C(C)(C)O)cc3)cn2n1	36 nM
Cc1ccc2c(=O)[nH]c(-c3ccc(C(C)(C)OCCO)cc3)cn12	1.5 nM
Cc1ccc2c(=O)[nH]c(-c3ccc([C@](C)(O)CCO)cc3)cn12	1 nM
Cc1ccc2c(=O)[nH]c(-c3ccc(C4(O)CC4)cc3)cn12	1 nM
Cc1ccc2c(=O)[nH]c(-c3ccc([C@](C)(O)CO)cc3)cn12	2 nM
CC(C)(O)c1ccc(-c2cn3cc(Cl)cc3c(=O)[nH]2)cc1	9.4 nM
CC(C)(O)c1ccc(-c2cn3c(F)ccc3c(=O)[nH]2)cc1	6.1 nM
Cc1ccc2c(=O)[nH]c(-c3ccc(C(C)(C)O)cc3)nn12	0.9 nM
CC(C)(O)c1ccc(-c2cn3c(F)c(F)cc3c(=O)[nH]2)cc1	3.5 nM
Cc1ccc2c(=O)[nH]c(-c3ccc(C4(O)COC4)cc3)cn12	1.8 nM
CC(C)(O)c1ccc(-c2cn3c(CO)ccc3c(=O)[nH]2)cc1	8.2 nM
CC(C)(O)c1ccc(-c2cn3cc(F)cc3c(=O)[nH]2)cc1	2.9 nM
Cc1ccc2c(=O)[nH]c(-c3ccc([C@@](C)(O)CO)cc3)cn12	1.7 nM

Target: Poly [ADP-ribose] polymerase 1 (Homo sapiens, UniProt P09874)
Test: Inhibition of PARP-1 (unknown origin) using biotinylated NAD and NAD as substrate assessed as inhibition of auto-PARsylation incubated for 150 mins by TR-FRET assay
Conditions: not given

Chain of Poly [ADP-ribose] polymerase 1 (P09874 whole entry): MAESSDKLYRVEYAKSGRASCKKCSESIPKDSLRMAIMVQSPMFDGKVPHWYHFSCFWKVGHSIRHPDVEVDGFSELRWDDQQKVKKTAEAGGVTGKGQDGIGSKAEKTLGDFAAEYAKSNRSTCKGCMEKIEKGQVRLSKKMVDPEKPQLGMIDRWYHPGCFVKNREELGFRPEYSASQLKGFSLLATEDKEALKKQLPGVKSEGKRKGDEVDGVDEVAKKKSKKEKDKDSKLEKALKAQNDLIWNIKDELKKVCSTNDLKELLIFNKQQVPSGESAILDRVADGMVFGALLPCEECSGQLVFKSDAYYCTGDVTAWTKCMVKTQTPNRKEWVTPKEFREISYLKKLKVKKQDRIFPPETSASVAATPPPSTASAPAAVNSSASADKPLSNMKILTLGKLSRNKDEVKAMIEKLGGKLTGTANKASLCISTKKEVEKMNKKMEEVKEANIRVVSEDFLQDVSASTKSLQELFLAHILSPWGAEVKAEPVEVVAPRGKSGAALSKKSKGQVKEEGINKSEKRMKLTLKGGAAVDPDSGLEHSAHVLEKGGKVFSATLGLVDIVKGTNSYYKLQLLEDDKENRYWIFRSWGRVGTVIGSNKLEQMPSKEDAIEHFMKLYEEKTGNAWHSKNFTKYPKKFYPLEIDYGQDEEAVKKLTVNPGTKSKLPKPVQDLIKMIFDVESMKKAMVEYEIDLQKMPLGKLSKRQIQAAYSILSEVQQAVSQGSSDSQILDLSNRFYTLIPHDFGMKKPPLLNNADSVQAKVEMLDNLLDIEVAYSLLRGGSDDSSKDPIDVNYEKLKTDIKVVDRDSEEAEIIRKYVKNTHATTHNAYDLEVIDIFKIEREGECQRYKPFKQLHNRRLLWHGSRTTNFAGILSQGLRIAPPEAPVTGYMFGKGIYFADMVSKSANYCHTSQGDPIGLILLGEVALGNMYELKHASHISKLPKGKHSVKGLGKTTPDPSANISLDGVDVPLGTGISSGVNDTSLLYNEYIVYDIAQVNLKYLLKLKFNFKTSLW

SMILES	IC50
Cc1ncc2c(=O)[nH]c(-c3ccc(C(C)(C)C)cc3)cn12	28000 nM
Cc1ncc2c(=O)[nH]c(-c3ccc(C(C)(C)O)cc3)cn12	23000 nM
CC(C)(O)c1ccc(-c2cn3cccc3c(=O)[nH]2)cc1	920 nM
Cc1cc2c(=O)[nH]c(-c3ccc(C(C)(C)O)cc3)cn2c1	1900 nM
Cc1ccc2c(=O)[nH]c(-c3ccc([C@@](C)(O)CCO)cc3)cn12	340 nM
Cc1csc2c(=O)[nH]c(-c3ccc(C(C)(C)O)cc3)nc12	440 nM
Cc1cc2c(=O)[nH]c(-c3ccc(C(C)(C)O)cc3)cn2n1	3700 nM
Cc1ccc2c(=O)[nH]c(-c3ccc(C(C)(C)OCCO)cc3)cn12	693 nM
Cc1ccc2c(=O)[nH]c(-c3ccc([C@](C)(O)CCO)cc3)cn12	770 nM
Cc1ccc2c(=O)[nH]c(-c3ccc(C4(O)CC4)cc3)cn12	330 nM
Cc1ccc2c(=O)[nH]c(-c3ccc([C@](C)(O)CO)cc3)cn12	604 nM
CC(C)(O)c1ccc(-c2cn3cc(Cl)cc3c(=O)[nH]2)cc1	630 nM
CC(C)(O)c1ccc(-c2cn3c(F)ccc3c(=O)[nH]2)cc1	2000 nM
Cc1ccc2c(=O)[nH]c(-c3ccc(C(C)(C)O)cc3)nn12	950 nM
CC(C)(O)c1ccc(-c2cn3c(F)c(F)cc3c(=O)[nH]2)cc1	1300 nM
Cc1ccc2c(=O)[nH]c(-c3ccc(C4(O)COC4)cc3)cn12	350 nM
CC(C)(O)c1ccc(-c2cn3c(CO)ccc3c(=O)[nH]2)cc1	4200 nM
CC(C)(O)c1ccc(-c2cn3cc(F)cc3c(=O)[nH]2)cc1	450 nM
Cc1ccc2c(=O)[nH]c(-c3ccc([C@@](C)(O)CO)cc3)cn12	748 nM

Target: T1, Poly [ADP-ribose] polymerase tankyrase-1
Test: Binding affinity to recombinant human TNKS1 (1091 to 1327 residues) assessed as dissociation constant by ITC method
Conditions: not given

SMILES	Kd
CC(C)(O)c1ccc(-c2cn3cccc3c(=O)[nH]2)cc1	6 nM
CC(C)(O)c1ccc(-c2cn3c(F)ccc3c(=O)[nH]2)cc1	6 nM
